Laboratory results: patent publication US4775676A, “Thiazolidine derivatives, process for their preparation and pharmaceutical compositions” (Chiesi Farmaceutici S.p.A., priority 1985, dated 1988)
Where a name gives a salt, the structure may show the parent alone.

What was measured:
porcine gastric mucine = assay: "In vitro" mucolytic activity (viscoelasticity of porcine gastric mucine); type: biochemical; conditions: 6% porcine gastric mucine, 25° C., 30 minutes, 0.075 Hz, versus control
Experimental: "In vitro" mucolytic activity
Control samples were similarly added with the vehicle only. After incubation at 25° C. for 30 minutes, the analysis of the rheologic characteristics was carried out by means of Contraves Low-Shear 30 sinus viscosimeter provided with an oscillating device for the study of the viscoelasticity. The dynamic measurements of the viscoelasticity were carried out at a single frequency (0.075 Hz), using an appropriate concentrical cylinder measurement system, particularly suited for bronchial mucus (Contraves MS-LS 1-1).
The rheogramm was recorded on X/Y Rikadenki 11T recorder and the […] determination was carried out by means of vectorial calculation.
The percent decreases versus control samples, reported in Table 1, were determined from the means of the values of said parameters (at least 7 replications per sample).

respiratory tract = assay: Mucosecretodynamic activity, "in vivo" fluorescein test; set-up: species or system male IVA-NMRI (SPF) mice; conditions: mice, p.o., 90 minutes before i.v. fluorescein, increase of fluorescein excretion; for ED50: Mus musculus, po
Experimental: Mucosecretodynamic activity
Male IVA-NMRI (SPF) mice, housed for at least 1 week under standard conditions, fasted (water ad libitum) for 18 hours before treatment, were used.
The compounds, dissolved or suspended in 20 ml/kg of a 0.2% Tween® 80 aqueous suspension, were administred orally 90 minutes before the intravenous injection of 1% (5 ml/kg) fluorescein. Animals treated p.o. with the only vehicle were used as a control group. After 30 minutes from the fluorescein injection the animals were killed and subjected to incannulation of the trachea. Then the respiratory tract was washed and the spectrophotometric dosage of the fluorescein was carried out against phosphate buffer on the so collected eluate, suitably diluted with phosphate buffer and centrifugated.
The amount of fluorescein was determined by means of a calibration curve prepared under the same experimental conditions and the excretion was expressed as ng/hour/10 g body weight. For each experimental session the percent increases of excretion versus controls were calculated.

mice = assay: Toxicity after single administration; type: in vivo; conditions: p.o., death-rate after 7 days
Experimental: (§1) Toxicity after single administration
(§2) IVA:NMRI (SPF) mice, fasted for 18 hours before treatment with water ad libitum, were used. The compounds, dissolved or suspended in a 0.2% Tween® 80 aqueous solution, were administered orally, at constant concentration (10%). According to the death-rate observed after 7 days from treatment, the approximate LD50 values, reported in Table 1, were interpolated on Probi ts chart.

[1] = Toxicity after single administration; type: in vivo; conditions: mouse, in vivo, po, mice, p.o., death-rate after 7 days, read-out: Acute toxicity LD50 approx.
Experimental: as §1, §2

Molecule | "in vitro" % decrease elasticity (G') (porcine gastric mucine) [%] | "in vitro" % decrease viscosity (.eta.) (porcine gastric mucine) [%] | LD50 at 168 h [1] [mg/kg] | ED50 (respiratory tract) [mg/kg] | other results
4-methyl-2-[(3-thiazolidyl)carbonyl]-cyclohexane-carboxylic acid lysine salt [Compound 11] | 6 | 9 |  |  | "in vivo" fluorescein test ED50 (respiratory tract): 300 mg/kg; Acute toxicity LD50 approx. (mice): > 4000 mg/kg
CCC1SCCN1C(=O)C1C2C=CC(C2)C1C(=O)O (centres unmarked) [Compound 2, 3-[3-[(2-Ethyl)-thiazolidine]carbonyl]-bicyclo-[2,2,1]-hepta-5-ene-2-carboxylic acid] | 33 | 58 | ~3000 |  | 
O=C(O)C1C2C=CC(C2)C1C(=O)N1CCSC1 (centres unmarked) [Compound 3, 3-[(3-thiazolidyl)-carbonyl]-bicyclo-[2,2,1]-hepta-5-ene-2-carboxylic acid] |  |  | ~1500 | 170 | 
O=C(O)CCC(=O)N1CCSC1 [Compound 4, 4-oxo-4-(3-thiazolidyl)-butanoic acid] |  |  | ~4000 |  | 
O=C(CCC(=O)N1CCSC1)N1CCSC1 [Compound 7, 1,4-Bis-(3-thiazolidyl)-1,4-dioxo-butane] |  |  | ~3000 | ~750 | 
N[C@@H](CSCC(=O)N1CCSC1)C(=O)O [Compound 8, 2-Amino-3-[[(3-thiazolidyl)-carbonylmethyl]thio]propionic acid] |  |  | > 4000 |  | 
CC(SCC(=O)N1CCSC1)C(=O)NCC(=O)O (centres unmarked) [Compound 9, 2-[2-[(3-thiazolidyl)carbonylmethylthio]-propionamide]acetic acid] | 21 | 40 | > 4000 |  | 
O=C(O)CCC(=O)N1CCSC1 [Compound 10, 4-oxo-4-(3-thiazolidyl)butanoic acid sodium salt] |  |  |  |  | Acute toxicity LD50 approx. (mice; sodium salt, 10080 min): > 4000 mg/kg
CC1(C(=O)N2CCSC2)CCC(C(=O)O)C1(C)C (centres unmarked) [Compound 12, -3-[(3-thiazolidyl)-carbonyl]-2,2,3-trimethyl-cyclopentanecarboxylic acid lysine salt] | 13 | 0 | > 4000 | 310 | 
CC(=O)N[C@@H](CS)C(=O)O [N-acetyl-L-cysteine, N--acetyl-L-cysteine, reference compound] | 39 | 53 |  |  | 
